Experimental data published in patent US12281119B2, “Imidazo[2,1-f][1,2,4]triazin-4-amine derivatives as TLR7 agonist” (BEIGENE, LTD., priority 2019, dated 2025).

Biological target: T1, human TLR7 (Homo sapiens, UniProt Q9NYK1)
T1 sequence (Q9NYK1 27-1049): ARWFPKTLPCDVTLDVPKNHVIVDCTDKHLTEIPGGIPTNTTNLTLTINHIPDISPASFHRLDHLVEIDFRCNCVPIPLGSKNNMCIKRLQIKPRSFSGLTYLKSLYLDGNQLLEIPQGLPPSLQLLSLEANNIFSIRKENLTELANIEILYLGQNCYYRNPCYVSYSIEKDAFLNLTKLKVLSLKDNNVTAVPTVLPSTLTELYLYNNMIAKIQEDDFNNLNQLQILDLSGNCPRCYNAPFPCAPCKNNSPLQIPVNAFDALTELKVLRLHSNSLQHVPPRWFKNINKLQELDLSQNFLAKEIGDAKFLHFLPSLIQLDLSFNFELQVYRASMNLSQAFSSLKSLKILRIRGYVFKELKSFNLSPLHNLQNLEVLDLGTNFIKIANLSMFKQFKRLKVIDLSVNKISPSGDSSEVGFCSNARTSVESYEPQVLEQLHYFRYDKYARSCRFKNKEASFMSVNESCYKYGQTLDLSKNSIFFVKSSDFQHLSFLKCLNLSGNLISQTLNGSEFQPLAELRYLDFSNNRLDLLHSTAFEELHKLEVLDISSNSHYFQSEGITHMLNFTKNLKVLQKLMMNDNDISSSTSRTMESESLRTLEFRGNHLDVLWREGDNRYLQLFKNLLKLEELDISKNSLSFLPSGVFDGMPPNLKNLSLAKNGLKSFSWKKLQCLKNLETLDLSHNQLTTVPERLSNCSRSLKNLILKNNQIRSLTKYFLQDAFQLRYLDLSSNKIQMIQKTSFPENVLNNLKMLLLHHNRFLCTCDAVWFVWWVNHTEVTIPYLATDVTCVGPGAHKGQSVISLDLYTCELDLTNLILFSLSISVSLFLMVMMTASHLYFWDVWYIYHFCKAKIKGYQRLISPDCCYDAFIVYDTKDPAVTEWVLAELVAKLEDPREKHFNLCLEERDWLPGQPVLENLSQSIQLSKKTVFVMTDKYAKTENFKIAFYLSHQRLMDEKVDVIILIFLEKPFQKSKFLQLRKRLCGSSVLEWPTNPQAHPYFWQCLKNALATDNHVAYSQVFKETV
Assay: HEK293-Blue hTLR7 reporter assay (QUANTI-BLUE, SEAP readout)
Type: cell-based
Design: host or cells: HEK293 (HEK-Blue-hTLR7)
Settings: HEK-Blue-hTLR7 cells, QUANTI-BLUE assay (A1-A76), 24 hrs
Protocol: HEK293-Blue hTLR7 Reporter Assay:
HEK-Blue-hTLR7 cell line (Invivogen, Cat. No. hkb-htlr7) was designed so that the expression of the secreted embryonic alkaline phosphatase (SEAP) was induced by activating NF-κ and AP-1 via stimulating human TLR7 with TLR7 agonists.
HEK-Blue-hTLR7 cells were seeded at a density of 4×10^4 cells/well in a volume of 180 μL in a 96-well plate in DMEM (Cat. No. 11965-092) supplemented with 10% (v/v) heat-inactivated fetal bovine serum (FBS) (Gibco, 10099-1441), 100 U/ml penicillin and 100 μg/ml streptomycin (Gibco, 15140122) containing […], […] and 10% (v/v) heat-inactivated fetal bovine serum. The cells were settled for 5 hrs, then treated with increasing amounts of tested compounds at 37° C. for 24 hrs. Then 20 μL of the supernatant from each well was incubated with 180 uL Quanti-blue substrate solution at 37° C. for 10-30 mins before the activity of the SEAP was determined at 620-655 nm using a spectrophotometer. The EC50 value for each compound was calculated with GraphPad Prism software using the sigmoidal dose-response function.

SMILES | EC50
CCCCOc1nc(N)c2ncc(Cc3cccc(CN4CCCC4)c3)n2n1 [Compound A11, 2-butoxy-7-(3-(pyrrolidin-1-ylmethyl)benzyl)imidazo[2,1-f][1,2,4]triazin-4-amine] | > 10 µM
CCCCOc1nc(N)c2ncc(Cc3ccccc3CN3CCCC3)n2n1 [Compound A19, 2-butoxy-7-(2-(pyrrolidin-1-ylmethyl)benzyl)imidazo[2,1-f][1,2,4]triazin-4-amine] | > 10 µM
CCCCOc1nc(N)c2ncc(C(O)c3cc(OC)ccn3)n2n1 (stereo not drawn) [Compound A73, (4-amino-2-butoxyimidazo[2,1-f][1,2,4]triazin-7-yl)(4-methoxypyridin-2-yl)methanol] | > 10 µM
CCCCOc1nc(N)c2ncc(Cc3cnc(OCC(C)(C)CN(C)C)c(Cl)c3)n2n1 [Compound A45, 2-butoxy-7-((5-chloro-6-(3-(dimethylamino)-2,2-dimethylpropoxy)pyridin-3-yl)methyl)imidazo[2,1-f][1,2,4]triazin-4-amine] | 3.84 µM
CCCCOc1nc(N)c2ncc(Cc3ccccc3OCCCN(C)C)n2n1 [Compound A27, 2-butoxy-7-(2-(3-(dimethylamino)propoxy)benzyl)imidazo[2,1-f][1,2,4]triazin-4-amine] | > 10 µM
CCCCOc1nc(N)c2ncc(Cc3ccc(CN4CCN(C)CC4)cc3)n2n1 [Compound A6, 2-butoxy-7-(4-((4-methylpiperazin-1-yl)methyl)benzyl)imidazo[2,1-f][1,2,4]triazin-4-amine] | 1.51 µM
CC(C)COc1nc(N)c2ncc(Cc3cccc(CN4CCCC4)c3)n2n1 [Compound A16, 2-isobutoxy-7-(3-(pyrrolidin-1-ylmethyl)benzyl)imidazo[2,1-f][1,2,4]triazin-4-amine] | > 10 µM
CCCCOc1nc(N)c2ncc(C(C)c3ccc(CN4CCCC4)cc3)n2n1 (stereo not drawn) [Compound A75, 2-butoxy-7-(1-(4-(pyrrolidin-1-ylmethyl)phenyl)ethyl)imidazo[2,1-f][1,2,4]triazin-4-amine] | > 10 µM
CCCCOc1nc(N)c2ncc(Cc3ccc(OCC(C)(C)CN(C)C)nc3)n2n1 [Compound A53, 2-butoxy-7-((6-(3-(dimethylamino)-2,2-dimethylpropoxy)pyridin-3-yl)methyl)imidazo[2,1-f][1,2,4]triazin-4-amine] | 1.43 µM
CCCCOc1nc(N)c2ncc(Cc3ccc(CN4C[C@@H]5C[C@H]4CN5)cc3)n2n1 [Compound A41, 7-(4-(((1S,4S)-2,5-diazabicyclo[2.2.1]heptan-2-yl)methyl)benzyl)-2-butoxyimidazo[2,1-f][1,2,4]triazin-4-amine] | 1.59 µM
CCCCOc1nc(N)c2ncc(Cc3ccc(CN4CCCCC4)cc3)n2n1 [Compound A5, 2-butoxy-7-(4-(piperidin-1-ylmethyl)benzyl)imidazo[2,1-f][1,2,4]triazin-4-amine] | 1.27 µM
CCCCOc1nc(N)c2ncc(Cc3cnc(OCCCN(C)C)c(Cl)c3)n2n1 [Compound A34, 2-butoxy-7-((5-chloro-6-(3-(dimethylamino)propoxy)pyridin-3-yl)methyl)imidazo[2,1-f][1,2,4]triazin-4-amine] | 3.37 µM
Cc1cc(COc2nc(N)c3ncc(Cc4ccc(CN5CCCC5)cc4)n3n2)no1 [Compound A48, 2-((5-methylisoxazol-3-yl)methoxy)-7-(4-(pyrrolidin-1-ylmethyl)benzyl)imidazo[2,1-f][1,2,4]triazin-4-amine] | > 10 µM
CCCCNc1nc(N)c2ncc(Cc3ccc(CN4CCCC4)cc3)n2n1 [Compound A67, N2-butyl-7-(4-(pyrrolidin-1-ylmethyl)benzyl)imidazo[2,1-f][1,2,4]triazine-2,4-diamine] | 0.585 µM
CCCCOc1nc(N)c2ncc(Cc3ccc(C4CCN(C)C4)cc3)n2n1 (stereo not drawn) [Compound A66, 2-butoxy-7-(4-(1-methylpyrrolidin-3-yl)benzyl)imidazo[2,1-f][1,2,4]triazin-4-amine] | 0.387 µM
CCCCOc1nc(N)c2ncc(Cc3ccc(OCCCN(C)C)nc3)n2n1 [Compound A32, 2-butoxy-7-((6-(3-(dimethylamino)propoxy)pyridin-3-yl)methyl)imidazo[2,1-f][1,2,4]triazin-4-amine] | 0.861 µM
CCCCOc1nc(N)c2ncc(C(O)c3ccccn3)n2n1 (stereo not drawn) [Compound A74, (4-amino-2-butoxyimidazo[2,1-f][1,2,4]triazin-7-yl)(pyridin-2-yl)methanol] | > 10 µM
CCCCOc1nc(N)c2ncc(Cc3ccc(OCCCN4CCCCC4)cc3)n2n1 [Compound A21, 2-butoxy-7-(4-(3-(piperidin-1-yl)propoxy)benzyl)imidazo[2,1-f][1,2,4]triazin-4-amine] | 2.87 µM
CCCCOc1nc(N)c2ncc(Cc3ccc(OC4CCN(CC)C4)cc3F)n2n1 (stereo not drawn) [Compound A60, 2-butoxy-7-(4-((1-ethylpyrrolidin-3-yl)oxy)-2-fluorobenzyl)imidazo[2,1-f][1,2,4]triazin-4-amine] | 0.246 µM
Nc1nc(O)nn2c(Cc3ccc(CN4CCCC4)cc3)cnc12 [Compound A65, 4-amino-7-(4-(pyrrolidin-1-ylmethyl)benzyl)imidazo[2,1-f][1,2,4]triazin-2-ol] | > 10 µM
CCCCOc1nc(N)c2ncc(Cc3cnc(OC4CCNCC4)c(Cl)c3)n2n1 [Compound A40, 2-butoxy-7-((5-chloro-6-(piperidin-4-yloxy)pyridin-3-yl)methyl)imidazo[2,1-f][1,2,4]triazin-4-amine] | 0.602 µM
CCCCOc1nc(N)c2ncc(Cc3ccc(OCCN(C)C(C)=O)nc3)n2n1 [Compound A59, N-(2-((5-((4-amino-2-butoxyimidazo[2,1-f][1,2,4]triazin-7-yl)methyl)pyridin-2-yl)oxy)ethyl)-N-methylacetamide] | > 10 µM
CCCCOc1nc(N)c2ncc(Cc3ccc(CN4CCOCC4)cc3)n2n1 [Compound A3, 2-butoxy-7-(4-(morpholinomethyl)benzyl)imidazo[2,1-f][1,2,4]triazin-4-amine] | > 10 µM
CCCCOc1nc(N)c2ncc(Cc3ccc(F)c(OCCCN(C)C)c3)n2n1 [Compound A24, 2-butoxy-7-(3-(3-(dimethylamino)propoxy)-4-fluorobenzyl)imidazo[2,1-f][1,2,4]triazin-4-amine] | > 10 µM
CCCCOc1nc(N)c2ncc(Cc3ccc(OCCCN4CCCC4)cc3)n2n1 [Compound A28, 2-butoxy-7-(4-(3-(pyrrolidin-1-yl)propoxy)benzyl)imidazo[2,1-f][1,2,4]triazin-4-amine] | 1.79 µM
Nc1nc(OCCCC(F)(F)F)nn2c(Cc3ccc(CN4CCCC4)cc3)cnc12 [Compound A69, 7-(4-(pyrrolidin-1-ylmethyl)benzyl)-2-(4,4,4-trifluorobutoxy)imidazo[2,1-f][1,2,4]triazin-4-amine] | 1.24 µM
CC(C)COc1nc(N)c2ncc(Cc3ccc(CN4CCCC4)cc3)n2n1 [Compound A54, 2-isobutoxy-7-(4-(pyrrolidin-1-ylmethyl)benzyl)imidazo[2,1-f][1,2,4]triazin-4-amine] | > 10 µM
CCCCOc1nc(N)c2ncc(Cc3cccc(OC)n3)n2n1 [Compound A51, 2-butoxy-7-((6-methoxypyridin-2-yl)methyl)imidazo[2,1-f][1,2,4]triazin-4-amine] | > 10 µM

Same assay, conditions: HEK-Blue-hTLR7 cells, QUANTI-BLUE assay (C1-C6), 24 hrs

SMILES | EC50
CCCCOc1nc(N)n2ncc(Cc3cccc(CN4CCCC4)c3)c2n1 [Compound C1, 2-butoxy-8-(3-(pyrrolidin-1-ylmethyl)benzyl)pyrazolo[1,5-a][1,3,5]triazin-4-amine] | > 10 µM
CCCCOc1nc(N)c2[nH]cc(Cc3cnc(N4CCNCC4)c(C)c3)c2n1 [Compound C6, 2-butoxy-7-((5-methyl-6-(piperazin-1-yl)pyridin-3-yl)methyl)-5H-pyrrolo [3,2-d]pyrimidin-4-amine] | 1.07 µM
